This note sets out measurements from patent publication US8377883B2, “Peptide for anti-angiogenesis and use thereof” (Beijing Institute for Cancer Research, priority 2006, dated 2013).

This assay has as its system mice liver cancer H22 cells. The assay can be described thus: Tumor suppression by FpAT and derivative peptides in liver cancer H22 tumor-bearing mouse model (Example 14). The class given is in vivo, mice of Kunming strain. The note with it: peptides 50 μg/100 μl PBS/injection, angulus oculi medialis vein daily, 7 times; CTX 80 mg/KG; tumors weighed. How it is done:
Ninety 5-week old mice of Kunming strain purchased from Animal Center Of Chinese Academy Of Medical Sciences were inoculated subcutaneously in forelimb with mice liver cancer H22 cells (National Institute for the Control of Pharmaceutical and Biological Products) (5×10^6/100 μl/mouse). On the next day after inoculation, each kind of inoculated cells were divided randomly into […] with 10 mice per group. FpAT (50 μg/100 μl PBS/injection) and 7 kinds of derivative peptides thereof (see Table 5 below for detailed sequence):FpAT-N3d, FpAT-N6d, FpAT-N9d, FpAT-C3d, FpAT-C6d, FpAT-C9d, FpAT-N5d-C4d, and vehicle control (PBS:100 μl/injection) were injected in angulus oculi medialis vein, with CTX (cyclophosphamide) (80 mg/KG) as positive control daily, 7 times in total. The mice were sacrificed by dislocating the neck on the next day after administration was stopped, and the tumors were taken and weighed for a statistical analysis.
As for “H2N-Asp-Ser-Gly-Glu-Gly-Asp-COOH (H-DSGEGD-OH; listed as Homo sapiens) [FpAT-C9d]”, the tumor suppressing rate amounted to 34.5%. The result for “H2N-Asp-Ser-Gly-Glu-Gly-Asp-Phe-Leu-Ala-COOH (H-DSGEGDFLA-OH; listed as Homo sapiens) [FpAT-C6d]” reads 32.3%; that for “H2N-Phe-Leu-Ala-Glu-Gly-Gly-Gly-Val-Arg-COOH (H-FLAEGGGVR-OH; listed as Homo sapiens) [FpAT-N6d]”, 57.6%. The result for `O=P1(N(CCCl)CCCl)NCCCO1` (centres unmarked) [CTX, cyclophosphamide, reference compound] reads 89.9%; that for “H2N-Asp-Ser-Gly-Glu-Gly-Asp-Phe-Leu-Ala-Glu-Gly-Gly-COOH (H-DSGEGDFLAEGG-OH; listed as Homo sapiens) [FpAT-C3d]”, 46.7%.

“H2N-Asp-Phe-Leu-Ala-Glu-Gly-COOH (H-DFLAEG-OH; listed as Homo sapiens) [FpAT-N5d-C4d]” gave a tumor suppressing rate of 56.4%. Compound “H2N-Glu-Gly-Gly-Gly-Val-Arg-COOH (H-EGGGVR-OH; listed as Homo sapiens) [FpAT-N9d]” yielded a tumor suppressing rate of 34.5%. Compound “H2N-Glu-Gly-Asp-Phe-Leu-Ala-Glu-Gly-Gly-Gly-Val-Arg-COOH (H-EGDFLAEGGGVR-OH; listed as Homo sapiens) [FpAT-N3d]” returned a tumor suppressing rate of 63.3%.
